# Marks after values point to notes of the source that are not given here.
# Test: Pharmacokinetics in plasma following single dose and repeated doses of Compound A 1.5 succinate
# Type: in vivo, human
# Details: Compound B
# Procedure: In order to evaluate the PK when administered as a single dose, a single dose of Compound A for each treatment group (at the corresponding dosage for that group) was administered on Day 1. Compound A was administered when fasted, immediately after waking up with at least 10 hours fasting. Taking any meal was prohibited for 2 hours after administration and only drinking water was allowed.
# Cycle 1 was started between 8 and 10 days after dosing in Cycle 0 and Compound A was administered continuously once daily. Compound A was administered at least 2 hours after breakfast, and any food intake was prohibited for 1 hour after administration. However, on Day 8 of Cycle 1, Compound A was administered immediately after waking up while the subject was fasted after at least 10 hours of overnight fasting in order to evaluate the PK. Taking any meals was prohibited for 2 hours after administration and only drinking water was allowed.
# Plasma concentration profile of Compound A following a single dose and repeated doses of Compound A 1.5 succinate are shown in FIG. 1 and FIG. 2, respectively. The profile shown in FIG. 2 is that at steady state.
# (§1) The pharmacokinetic parameters of Compound A following the single dose and repeated doses of Compound A 1.5 succinate are shown in the following table. The pharmacokinetic parameters of Compound A following repeated doses of Compound A 1.5 succinate shown below are those at steady state.
# as §1, with “1.5 succinate updated after obtaining the above data are shown” for “1.5 succinate are shown”
# The pharmacokinetic parameters of Compound B following the single dose and repeated doses of Compound A 1.5 succinate are shown in the following table. The pharmacokinetic parameters of Compound B following repeated doses of Compound A 1.5 succinate shown below are those at steady state.
# [1] = repeated once-daily doses of Compound A 30 mg, steady state (n = 2)
# [2] = repeated once-daily doses of Compound A 60 mg, steady state (n = 2)
# [3] = repeated once-daily doses of Compound A 100 mg, steady state (n = 3)
# [4] = repeated once-daily doses of Compound A 140 mg, steady state (n = 3)
# [5] = repeated once-daily doses of Compound A 180 mg, steady state (n = 3)
# [6] = single dose of Compound A 30 mg (n = 2)
# [7] = single dose of Compound A 60 mg (n = 3)
# [8] = single dose of Compound A 100 mg (n = 3)
# [9] = single dose of Compound A 140 mg (n = 3)
# [10] = single dose of Compound A 180 mg (n = 3)
smiles,measurement,setting,value
"CNC(=O)n1ccc2cc(Oc3ccnc(NC(=O)c4ccc(C5CCNCC5)cc4)c3)c(OCCOC)cc21 [Compound B, 6-(2-Methoxyethoxy)-N-methyl-5-((2-(4-(piperidin-4-yl)benzamide)pyridin-4-yl)oxy)-1H-indole-1-carboxamide]",AUC(0-t),[1],194 ng·h/mL
same,Cavg,[1],7.71 ng/mL
same,Cmax,[1],12.4 ng/mL
same,Cmin,[1],5.19 ng/mL
same,"tmax, median (minimum − maximum)",[1],3.49 (1.97-5.00) h
same,AUC(0-t),[2],565 ^a^ h* ng/mL
same,Cavg,[2],22.6 ^a ng/mL
same,Cmax,[2],44.2 ^a ng/mL
same,Cmin,[2],12.3 ^a ng/mL
same,"tmax, median (minimum − maximum)",[2],2.54 (2.07-3.00) ^a h
same,AUC(0-t),[3],805 ± 195 ng·h/mL
same,Cavg,[3],32.3 ± 7.79 ng/mL
same,Cmax,[3],55.4 ± 14.5 ng/mL
same,Cmin,[3],17.4 ± 7.37 ng/mL
same,"tmax, median (minimum − maximum)",[3],5.00 (4.98-5.05) h
same,AUC(0-t),[4],1620 ± 460 ng·h/mL
same,Cavg,[4],66.1 ± 18.8 ng/mL
same,Cmax,[4],106 ± 51.8 ng/mL
same,Cmin,[4],41.5 ± 10.9 ng/mL
same,"tmax, median (minimum − maximum)",[4],5.00 (2.98-5.08) h
same,AUC(0-t),[5],1500 ± 686 ng·h/mL
same,Cavg,[5],60.4 ± 27.7 ng/mL
same,Cmax,[5],98.0 ± 39.5 ng/mL
same,Cmin,[5],32.8 ± 13.0 ng/mL
same,"tmax, median (minimum − maximum)",[5],5.00 (3.05-5.08) h
same,AUC(0-inf),[6],297 ng·h/mL
same,AUC(0-t),[6],274 ng·h/mL
same,Cmax,[6],19.2 ng/mL
same,t1/2,[6],21.5 h
same,"tmax, median (minimum − maximum)",[6],3.59 (2.02-5.15) h
same,AUC(0-inf),[7],687 ± 354 ng·h/mL
same,AUC(0-t),[7],652 ± 352 ng·h/mL
same,Cmax,[7],35.1 ± 19.1 ng/mL
same,t1/2,[7],26.1 ± 10.2 h
same,"tmax, median (minimum − maximum)",[7],4.98 (3.00-5.07) h
same,AUC(0-inf),[8],699 ± 163 ng·h/mL
same,AUC(0-t),[8],647 ± 153 ng·h/mL
same,Cmax,[8],38.4 ± 4.36 ng/mL
same,t1/2,[8],20.0 ± 0.794 h
same,"tmax, median (minimum − maximum)",[8],4.95 (2.97-5.10) h
same,AUC(0-inf),[9],1410 ± 216 ng·h/mL
same,AUC(0-t),[9],1350 ± 233 ng·h/mL
same,Cmax,[9],63.8 ± 36.1 ng/mL
same,t1/2,[9],40.50 ± 6.46 h
same,"tmax, median (minimum − maximum)",[9],5.00 (4.88-5.08) h
same,AUC(0-inf),[10],1370 ± 703 ng·h/mL
same,AUC(0-t),[10],1320 ± 693 ng·h/mL
same,Cmax,[10],50.7 ± 20.7 ng/mL
same,t1/2,[10],39.9 ± 6.27 h
same,"tmax, median (minimum − maximum)",[10],5.00 (3.00-5.02) h
